Experimental data taken from patent EP4553077A1 (Kinoteck Therapeutics Co., Ltd, priority 2022, dated 2024).

Legend:
Ba/F3-TEL-FGFR1 = Ba/F3-TEL-FGFR1 (Homo sapiens, UniProt P11362+P41212); experiment: Cell viability (proliferation inhibition) of Ba/F3 cells, CellTiter Glo; conditions: read-out: Ba/F3 cell FGFR1 (IC50 nM), 72 h
Ba/F3-TEL-FGFR3 = Ba/F3-TEL-FGFR3 (Homo sapiens, UniProt P22607+P41212); experiment: as above; conditions: read-out: Ba/F3 cell FGFR3 (IC50 nM), 72 h
Ba/F3-TEL-FGFR2 = Ba/F3-TEL-FGFR2 (Homo sapiens, UniProt P21802+P41212); experiment: as above; conditions: read-out: Ba/F3 cell FGFR2 (IC50 nM), 72 h
A204 cells = experiment: Proliferation inhibition, CCK-8 colorimetric method; format: cell-based; conditions: 72 h
Experimental: (§1) CCK-8 (Bimake/B34304) colorimetric method was used to detect the in vitro proliferation inhibitory effect of compounds on suspended or adherent cells in this experiment. The specific experimental steps were as follows: • 1) Cell plating: SNU16 and A204 tumor cells (cells from Shanghai Institute of Organic Chemistry, Chinese Academy of Sciences) in the logarithmic growth phase were digested and centrifuged for trypan blue counting, and the cells were seeded into a transparent 96 well plate at a density of 4000 cells/100 µ 1/well. […] The test compound and control compound stock solution were diluted with the corresponding culture medium required for cell culture (with or without solvent DMSO) to obtain a series of working solutions, with concentrations of twice the final concentration. The solvent DMSO contents in each concentration group were consistent with that of the solvent control group. The final concentration of A204 cells started at 10 µM and was diluted twice.
(§2) Calculation of cell survival rate: Cell survival rate (%)=[(As-Ac)/(Ab-Ac)] × 100%] (As: experimental well; Ab: Solvent control well; Ac: Blank well).

SNU16 cells = experiment: as above; format: cell-based
Experimental: as §1, §2

[1] = Pharmacokinetic test in rats; format: in vivo, male SD rats; conditions: rat, plasma, oral gavage administration, 10 mg/kg
Experimental: Rat pharmacokinetic experiments were performed using male SD rats, 180-220g, provided by Beijing Vital River Laboratory Animal Technology Co., Ltd. 3 rats that were fasted overnight were taken, and administered orally by gavage (10 mg/kg). Blood samples were collected before administration, as well as 5, 15, 30 min and 1, 2, 4, 6, 8, 24 h after administration; another 3 rats were taken and administered intravenously (1 mg/kg), blood samples were collected before administration, as well as 5, 15, 30 min and 1, 2, 4, 6, 8, 24 h after administration. Blood sample was centrifuged at 6800g, 2-8 °C for 6 min, and plasma was collected, and stored at -80 °C. Plasma of each time point was taken, 10 times the amount of 50% methanol acetonitrile solution containing internal standard was added, and mixed by vortex for 5 min, centrifuged at 18000 rpm at 4 °C for 10 min, and the supernatant was taken directly for LC-MS/MS analysis. The main pharmacokinetic parameters were analyzed using WinNonlin8.2 software for non compartmental model analysis. Table 3: pharmacokinetic test in rats results of test compounds

Ba/F3-TEL-FGFR2, sequence (P21802 481-770 limits assumed, one chain of several): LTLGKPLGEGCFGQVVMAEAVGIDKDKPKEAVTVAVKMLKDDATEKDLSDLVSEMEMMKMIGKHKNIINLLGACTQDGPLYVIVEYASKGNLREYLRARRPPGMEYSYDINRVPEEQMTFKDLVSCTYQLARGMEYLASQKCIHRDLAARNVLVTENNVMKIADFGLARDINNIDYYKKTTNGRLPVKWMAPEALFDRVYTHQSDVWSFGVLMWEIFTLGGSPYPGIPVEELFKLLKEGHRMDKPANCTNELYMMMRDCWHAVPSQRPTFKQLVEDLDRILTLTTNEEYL
Ba/F3-TEL-FGFR3, sequence (P22607 472-761 limits assumed, one chain of several): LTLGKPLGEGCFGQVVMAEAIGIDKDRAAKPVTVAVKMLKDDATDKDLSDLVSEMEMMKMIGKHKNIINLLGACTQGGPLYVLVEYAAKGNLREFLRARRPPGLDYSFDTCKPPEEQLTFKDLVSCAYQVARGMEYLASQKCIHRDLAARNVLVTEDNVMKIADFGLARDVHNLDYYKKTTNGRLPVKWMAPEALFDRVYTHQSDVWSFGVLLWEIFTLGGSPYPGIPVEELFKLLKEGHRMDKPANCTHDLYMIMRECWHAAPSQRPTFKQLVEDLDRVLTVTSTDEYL
Ba/F3-TEL-FGFR1, sequence (P11362 478-767 limits assumed, one chain of several): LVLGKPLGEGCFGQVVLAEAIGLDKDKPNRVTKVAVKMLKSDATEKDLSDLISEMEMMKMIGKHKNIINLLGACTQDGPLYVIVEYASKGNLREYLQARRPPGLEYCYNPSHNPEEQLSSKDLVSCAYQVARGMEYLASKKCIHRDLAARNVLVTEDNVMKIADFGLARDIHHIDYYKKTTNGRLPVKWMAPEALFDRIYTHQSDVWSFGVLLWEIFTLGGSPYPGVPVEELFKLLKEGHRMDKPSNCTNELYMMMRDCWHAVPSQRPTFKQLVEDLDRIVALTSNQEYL

C=C(C)C(=O)Nc1ccc(-c2c(-c3ccc(N=S4(=O)CCCCC4)c(F)c3)c3c(N)ncnc3n2C)c(F)c1 [Compound 7]
IC50 (Ba/F3-TEL-FGFR1): 627 nM | IC50 (Ba/F3-TEL-FGFR3): 545 nM | IC50 (Ba/F3-TEL-FGFR2): 2.4 nM

C=C(C)C(=O)Nc1ccc(-c2c(-c3ccc(N=S4(=O)CCC4)cc3)c3c(N)ncnc3n2C)c(F)c1 [Compound 8]
IC50 (Ba/F3-TEL-FGFR1): 600 nM | IC50 (Ba/F3-TEL-FGFR2): 0.7 nM | IC50 (A204 cells; Homo sapiens): 618 nM | IC50 (SNU16 cells; Homo sapiens, SNU-16, 72 h): 1.34 nM | AUC(0-t) [1]: 630 ng·h/mL | Cmax [1]: 352 ng/mL | Tmax [1]: 15 min | half-life [1]: 109 min

C=C(C)C(=O)Nc1ccc(-c2c(-c3ccc(N=S4(=O)CCCC4)c(F)c3)c3c(N)ncnc3n2C)c(C)c1 [Compound 22, N-(4-(4-amino-5-(3-fluoro-4-((1-oxotetrahydro-1 λ^6-thiophene-1-ylidene)amino)phenyl) -7-methyl-7H-pyrrolo [2,3-d]pyrimidin-6-yl) -3-methylphenyl) methacrylamide]
IC50 (Ba/F3-TEL-FGFR1): 717 nM | IC50 (Ba/F3-TEL-FGFR2): 2.7 nM | IC50 (A204 cells; Homo sapiens): 1610 nM | IC50 (SNU16 cells; Homo sapiens, SNU-16, 72 h): 4.97 nM

C=C(C)C(=O)Nc1ccc(-c2c(-c3ccc(N=S4(=O)CCCC4)c(F)c3)c3c(N)ncnc3n2C)c(C#N)c1 [Compound 26, N-(4-(4-amino-5-(3-fluoro-4-((1-oxotetrahydro-1 λ^6-thiophene-1-ylidene)amino)phenyl) -7-methyl-7H-pyrrolo [2,3-d]pyrimidin-6-yl) -3-cyanophenyl) methacrylamide]
IC50 (Ba/F3-TEL-FGFR3): 110 nM | IC50 (Ba/F3-TEL-FGFR2): 4.5 nM | IC50 (A204 cells; Homo sapiens): 285 nM | IC50 (SNU16 cells; Homo sapiens, SNU-16, 72 h): 3.36 nM

C=C(C)C(=O)Nc1ccc(-c2c(-c3ccc(N=S(=O)(N(C)C)C(F)(F)F)c(F)c3)c3c(N)ncnc3n2C)cc1 (stereo not shown) [Compound 48]
IC50 (Ba/F3-TEL-FGFR1): 625 nM | IC50 (Ba/F3-TEL-FGFR3): 577 nM | IC50 (Ba/F3-TEL-FGFR2): 0.9 nM | AUC(0-t) [1]: 883 ng·h/mL | Cmax [1]: 212 ng/mL | Tmax [1]: 49.8 min | half-life [1]: 206 min

C=C(F)C(=O)Nc1ccc(-c2c(-c3ccc(N=S4(=O)CCCCC4)cc3)c3c(N)ncnc3n2C)cc1 [Compound 68, N-(4-(4-amino-7-methyl-5-(4-((1-oxotetrahydro-2H-1 λ^6-thiopyran-1-ylidene)amino)phenyl)-7H-pyrrolo[2,3-d]pyrimidin-6-yl)phenyl)-2-fluoroacrylamide]
IC50 (Ba/F3-TEL-FGFR2): 0.5 nM | IC50 (A204 cells; Homo sapiens): 267 nM | IC50 (SNU16 cells; Homo sapiens, SNU-16, 72 h): 1.65 nM

C=C(C)C(=O)Nc1ccc(-c2c(-c3ccc(N=S4(=O)CCC4)c(F)c3)c3c(N)ncnc3n2C)c(Cl)c1 [Compound 74, N-(4-(4-amino-5-(3-fluoro-4-(1-oxo-1λ^6-thietan-1-imino)phenyl) -7-methyl-7H-pyrrolo[2,3-d]pyrimidin-6-yl)-3-chlorophenyl)methacrylamide]
IC50 (Ba/F3-TEL-FGFR1): 300 nM | IC50 (Ba/F3-TEL-FGFR2): 0.5 nM | IC50 (A204 cells; Homo sapiens): 595 nM | IC50 (SNU16 cells; Homo sapiens, SNU-16, 72 h): 1.19 nM

C=C(C)C(=O)Nc1ccc(-c2c(-c3ccc(N=S4(=O)CCCC4)c(Cl)c3)c3c(N)ncnc3n2C)c(F)c1 [Compound 88, N-(4-(4-amino-5-(3-chloro-4-((1-oxidetetrahydro-1 λ^6-thiophene-1-ylidene)amino)phenyl) -7-methyl-7H-pyrrolo [2,3-d]pyrimidin-6-yl) -3-fluorophenyl) methacrylamide]
IC50 (Ba/F3-TEL-FGFR1): 561 nM | IC50 (Ba/F3-TEL-FGFR3): 216 nM | IC50 (Ba/F3-TEL-FGFR2): 1.5 nM

[2H]C([2H])([2H])n1c(-c2cc(C)c(NC(=O)C(=C)C)cc2Cl)c(-c2ccc(N=S3(=O)CCCC3)c(F)c2)c2c(N)ncnc21 [Compound 90, N-(4-(4-amino-5-(3-fluoro-4-((1-tetrahydro-1λ^6-thiophene-1-ylidene)amino)phenyl) -7-(methyl-d3) -7H-pyrrolo [2,3-d]pyrimidin-6-yl) -5-chloro-2-methylphenyl) methacrylamide]
IC50 (Ba/F3-TEL-FGFR3): 174 nM | IC50 (Ba/F3-TEL-FGFR2): 3.6 nM

[2H]C([2H])([2H])n1c(-c2ccc(NC(=O)C(=C)C)cc2F)c(-c2ccc(N=S3(=O)CCCC3)c(F)c2)c2c(N)ncnc21 [Compound 94]
IC50 (Ba/F3-TEL-FGFR1): 625 nM | IC50 (Ba/F3-TEL-FGFR3): 205 nM | IC50 (Ba/F3-TEL-FGFR2): 1.1 nM

[2H]C([2H])([2H])n1c(-c2ccc(NC(=O)C(=C)C)cc2F)c(-c2ccc(N=S3(=O)CCC3)c(F)c2)c2c(N)ncnc21 [Compound 97, N-(4-(4-amino-5-(3-fluoro-4-((1-oxo-1 λ^6-thiophene-1-ylidene)amino)phenyl) -7-(methyl-d3) -7H-pyrrole [2,3-d]pyrimidin-6-yl) -3-fluorophenyl) methacrylamide]
IC50 (Ba/F3-TEL-FGFR1): 480 nM | IC50 (Ba/F3-TEL-FGFR2): 1.9 nM | IC50 (A204 cells; Homo sapiens): 764 nM | IC50 (SNU16 cells; Homo sapiens, SNU-16, 72 h): 2.66 nM

[2H]C([2H])([2H])n1c(-c2ccc(NC(=O)C(=C)C)cc2F)c(-c2ccc(N=S3(=O)C=CC=C3)cc2)c2c(N)ncnc21 [Compound 98, N-(4-(4-amino-7-(methyl-d3) -5-(4-((1-oxo-1 λ^6-thiophene-1-ylidene)amino)phenyl) -7H-pyrrolo [2,3-d]pyrimidin-6-yl) -3-fluorophenyl) methacrylamide]
IC50 (Ba/F3-TEL-FGFR1): 416 nM | IC50 (Ba/F3-TEL-FGFR2): 0.6 nM | IC50 (A204 cells; Homo sapiens): 845 nM | IC50 (SNU16 cells; Homo sapiens, SNU-16, 72 h): 1.81 nM

C=C(C)C(=O)Nc1ccc(-c2c(-c3ccc(N=S(=O)(CC)CC)c(F)c3)c3c(N)ncnc3n2C)c(F)c1 [Compound 100]
IC50 (Ba/F3-TEL-FGFR1): 823 nM | IC50 (Ba/F3-TEL-FGFR3): 414 nM | IC50 (Ba/F3-TEL-FGFR2): 1.9 nM

C=C(C)C(=O)Nc1ccc(-c2c(-c3ccc(N=S(=O)(CC)CC)cc3)c3c(N)ncnc3n2C)c(Cl)c1 [Compound 102]
IC50 (Ba/F3-TEL-FGFR2): 0.6 nM | IC50 (A204 cells; Homo sapiens): 502 nM | IC50 (SNU16 cells; Homo sapiens, SNU-16, 72 h): 2.63 nM

C=C(C)C(=O)Nc1ccc(-c2c(-c3ccc(N=S4(=O)CCC4)c(Cl)c3)c3c(N)ncnc3n2C)c(F)c1 [Compound 104]
IC50 (Ba/F3-TEL-FGFR1): 640 nM | IC50 (Ba/F3-TEL-FGFR2): 0.9 nM | IC50 (A204 cells; Homo sapiens): 1020 nM | IC50 (SNU16 cells; Homo sapiens, SNU-16, 72 h): 5.51 nM

[2H]C([2H])([2H])n1c(-c2ccc(NC(=O)C(=C)C)cc2F)c(-c2ccc(N=S(=O)(CC)CC)cc2)c2c(N)ncnc21 [Compound 109]
IC50 (Ba/F3-TEL-FGFR2): 4.5 nM | IC50 (A204 cells; Homo sapiens): 1040 nM | IC50 (SNU16 cells; Homo sapiens, SNU-16, 72 h): 9.38 nM

C=C(C)C(=O)Nc1ccc(-c2c(-c3ccc(Oc4nccc(C)n4)c(F)c3)c3c(N)ncnc3n2C)cc1 [Control compound I, reference compound]
IC50 (A204 cells; Homo sapiens): 3220 nM | IC50 (SNU16 cells; Homo sapiens, SNU-16, 72 h): 13.2 nM | AUC(0-t) ([1]; male, SD): 606 ng·h/mL | Cmax ([1]; male, SD): 141 ng/mL | Tmax ([1]; male, SD): 40.2 min | half-life ([1]; male, SD): 51 min

N-(4-(4-amino-7-methyl-5-(4-(1-oxotetrahydro-2H-1λ^6-thiopyran-1- imino) phenyl) -7H-pyrrolo [2,3-d] pyrimidin-6-yl) -3-fluorophenyl) methacrylamide [Compound 1]
IC50 (Ba/F3-TEL-FGFR1): 656 nM | IC50 (Ba/F3-TEL-FGFR3): 869 nM | IC50 (Ba/F3-TEL-FGFR2): 2.3 nM | IC50 (A204 cells): 1310 nM | IC50 (SNU16 cells; 72 h): 5.57 nM
